Source: patent US6790855B2 (priority 2000, dated 2004)
Where a name gives a salt, the structure may show the parent alone.

What was measured:
[1] = system: mice; experiment: radiant heat tailflick assay after topical administration (tail immersed in DMSO drug solution); type: in vivo; conditions: for Opioid ED50 Value: opioid alone or opioid component of fixed-ratio combination; for response reached in dose-response curve: tested immediately; for response reached in dose-response curve / analgesic activity in words: FIG. 2; for analgesic activity in words: dose-response; for analgesic response: constant concentration, FIG. 1a; for peak response: fixed low dose: morphine 1.5 mM, lidocaine 0.9 mM, alone or both together, FIG. 3a
[2] = system: subject's finger; experiment: radiant light heat source finger latency after topical gel application; type: in vivo, human; conditions: Lidocaine alone 0.125 mg/ml or morphine alone 0.25 mg/ml gel, FIG. 7
[3] = as an analgesic and as a respiratory depressant; cited from earlier work
[4] = topical, increasing concentrations, 2 minutes, FIG. 4
[5] = 2 minutes exposure, listed as free base of lidocaine

With `CN1CC[C@]23CCCC[C@H]2[C@H]1Cc1ccc(O)cc13` [Levorphanol] the ED50 [1, 4] was 5000 µM, the “analgesic response in words” value [1, 4] was “full analgesic responses” and the “Opioid ED50 Value” ([1]; topical, tailflick) was 5000 µM.

In the case of `CCN(CC)CC(=O)Nc1c(C)cccc1C` [Lidocaine HCl], the “response reached in dose-response curve” value ([1]; 2 minutes exposure, HCl) is reported as 50-60% and the “analgesic activity in words” value ([1]; 2 minutes exposure, HCl) is reported as “less effective”.

With `CCN(CC)CC(=O)Nc1c(C)cccc1C` [Lidocaine] the “response reached in dose-response curve” value [1, 5] was 75%, the “time of decrease to baseline levels” value ([1]; 2 minutes exposure, time action curve over 30 minutes, FIG. 1b) was at most 20 min and the analgesic response ([1]; exposure 30 seconds) was 20%. The analgesic response ([1]; exposure 2 minutes) was 70%, the “analgesic activity in words” value [1, 5] was “biphasic dose-response curve” and the peak response [1] was 20%. The Shift ([1]; lidocaine ED50, + morphine 3.0 mM vs alone) was 3.1, the Shift ([1]; lidocaine ED50, + morphine 4.5 mM vs alone) was 3.6 and the Shift ([1]; mouse, in vivo) was 2.5. For the same compound, the ED50 ([1]; topical lidocaine + morphine 1.5 mM) was 1000 µM, the ED50 ([1]; topical lidocaine + morphine 3.0 mM) was 800 µM and the ED50 ([1]; topical lidocaine + morphine 4.5 mM) was 700 µM. The ED50 ([1]; topical, drug alone) was 2500 µM, the “Lidocaine ED50 Value” ([1]; topical, tailflick, lidocaine alone (initial portion of curve) or lidocaine component of fixed-ratio combination) was 2500 µM and the “change in latency compared to baseline, in words” value [2] was “Neither morphine nor Lidocaine produced appreciable changes in latency”.

With `CN1CC[C@]23c4c5ccc(O)c4O[C@H]2[C@@H](O)C=C[C@H]3[C@H]1C5` [Morphine] the “analgesic activity in words” value ([1]; 2 minutes exposure) was “intermediate potency between the two forms of lidocaine”, the peak response [1] was 20% and the Shift ([1]; morphine ED50, + lidocaine 0.45 mM vs alone) was 1.7. For the same compound, the Shift ([1]; morphine ED50, + lidocaine 0.9 mM vs alone) was 4.1, the Shift ([1]; morphine ED50, + lidocaine 1.8 mM vs alone) was 4.7 and the ED50 ([1]; topical morphine + lidocaine 0.45 mM) was 3600 µM. It also gave an ED50 ([1]; topical morphine + lidocaine 0.9 mM) of 1500 µM, an ED50 ([1]; topical morphine + lidocaine 1.8 mM) of 1300 µM and an ED50 ([1]; topical, drug alone) of 6100 µM. The “Opioid ED50 Value” ([1]; topical, tailflick) was 6100 µM and the “change in latency compared to baseline, in words” value [2] was “Neither morphine nor Lidocaine produced appreciable changes in latency”.

For `COc1ccc2c3c1O[C@H]1[C@@H](O)C=C[C@H]4[C@@H](C2)N(C)CC[C@@]341` [codeine], the “effectiveness orally relative to parenterally” value [3] is given as “approximately 60%”.
